# Residues, ends and D or L forms follow the SMILES beside them.
# Experiments:
# Format in all cases: cell-based
# NIH3T3 cells = assay: Intracellular release of dextran (10 kDa) in NIH3T3 cells
# Method: Intracellular release of dextran is more difficult in NIH3T3 cells than in HeLa cells. NIH3T3 cells and dextran (10 kDa) were incubated in the presence of HAad, HA/E2, or L17E (40 μM each) in DEME(−) medium for 1 hour in the same manner as in Example 6.
# HeLa cells [1] = assay: Intracellular release of Alexa 488-labeled human immunoglobulin (IgG, circa 160 kDa); settings: for cells in which intracellular release of human immunoglobulin was observed: α-MEM(−) 1 hour
# Method: The cells and human immunoglobulin fluorescently labeled with Alexa 488 (IgG, circa 160 kDa) (500 μg/mL) were incubated in the presence of HAad, HA/E2, or L17E (40 μM each) in α-MEM(−) medium for 1 hour in the same manner as in Example 6.
# The cells and human immunoglobulin fluorescently labeled with Alexa 488 (IgG, circa 160 kDa) (50 μg/mL: 1/10 the volume of Example 8) were incubated in the presence of HAad or L17E (40 μM each) in α-MEM(−) medium for 1 hour.
# In the presence of HAad or L17E (20 μM each: ½ the amount used in Examples 8 and 9), the cells and human immunoglobulin fluorescently labeled with Alexa 488 (IgG, circa 160 kDa) (500 μg/mL: the same amount as in Example 8) were incubated in α-MEM(−) medium for 1 hour. […] (In FIG. 9, the intracellular release achieved by treatment with a low concentration of HAad was 2.5 times the release achieved by L17E. With respect to the peptide concentration required to detect the signal of intracellularly released human immunoglobulin in 35% of the cells, the concentration of L17E is 40 μM, and the concentration of HAad is 20 μM, which is half the concentration of L17E.)
# [2] = test system: HeLa cells transfected with a plasmid encoding loxP-DsRed-loxP-EGFP; assay: Genetic recombination assay by intracellular delivery of Cre protein (EGFP expression)
# Method: HeLa cells transfected with a plasmid encoding loxP-DsRed-loxP-EGFP, which were prepared in the same manner as in the Examples of PTL 2, were incubated with His-tag fusion Cre (Cre-Hiss) (10 μM) in the presence of HAad, HA/E2, or L17E (40 μM each) for 1 hour. This system was designed to express EGFP when intracellular release of Cre protein induces genetic recombination. […] The proportions of GFP-expressing cells in the cells treated with HAad, HA/E2, and L17E were 41%, 36%, and 30%, respectively. Considering the fact that the EGFP expression efficiency achieved with no administration of a release peptide was 9%, peptide administration of HAad, HA/E2, and L17E can be considered to increase genetic recombination by 32%, 27%, and […], respectively, as compared with no peptide administration.
# HeLa cells [3] = assay: Nuclear accumulation of NLS-EGFP; settings: NLS-EGFP 10 μM; peptide 40 μM; α-MEM(−) 1 hour
# Method: The cells and NLS-EGFP (10 μM) were incubated in the presence of HAad or L17E (40 μM each) in α-MEM(−) medium for 1 hour in the same manner as in Example 6. If NLS-EGFP is intracellularly released while maintaining its activity, localization of green fluorescence in the nuclei is observed. […] A high activity of HAad to release endosome-encapsulated substances was also confirmed in this system.
# [4] = Cell viability 24 hours after peptide treatment in the presence of serum (WST-8); settings: cells (cell line not given); peptide 10 μM, 20 μM and 40 μM; α-MEM(+) 24 hours; WST-8
# Method: (§1) After the cells were incubated in the presence of HAad, HA/E2, or L17E (each 10 μM, 20 μM, and 40 μM) in α-MEM(+) medium for 24 hours, the cell viability (%) was evaluated by WST-8 assay (FIG. 14). The cell viability (%) after 24 hours with the use of any peptide at any concentration was almost 100%.
# cells = assay: as above; settings: 10-40 μM; α-MEM(+) 24 hours
# Method: as §1
# HeLa cells [5] = assay: Release of Alexa 488-dextran (10 kDa) into the cytoplasm, confocal microscopy
compound,measurement,setting,value
"CC[C@H](C)[C@H](N)C(=O)N[C@@H](Cc1c[nH]c2ccccc12)C(=O)N[C@@H](CC(C)C)C(=O)N[C@H](C(=O)N[C@@H](C)C(=O)N[C@@H](CC(C)C)C(=O)N[C@@H](CCCCN)C(=O)N[C@@H](Cc1ccccc1)C(=O)N[C@@H](CC(C)C)C(=O)NCC(=O)N[C@@H](CCCCN)C(=O)N[C@@H](C)C(=O)N[C@@H](C)C(=O)N[C@@H](C)C(=O)N[C@@H](CCCCN)C(=O)N[C@@H](C)C(=O)N[C@@H](CCCC(=O)O)C(=O)N[C@@H](C)C(=O)N[C@@H](CCCCN)C(=O)N[C@@H](CCC(N)=O)C(=O)N[C@@H](CCCC(=O)O)C(=O)N[C@@H](CC(C)C)C(=O)N[C@@H](CO)C(=O)N[C@@H](CCCCN)C(=O)N[C@@H](CC(C)C)C(N)=O)[C@@H](C)O [HAad, H-IWLTALKFLGKAAAKAXAKQXLSKL-amide] (HELM PEPTIDE1{I.W.L.T.A.L.K.F.L.G.K.A.A.A.K.A.[O=C(O)CCC[C@H](N[*:1])C(=O)[*:2]].A.K.Q.[O=C(O)CCC[C@H](N[*:1])C(=O)[*:2]].L.S.K.L.[am]}$$$$V2.0)",intracellular release of dextran relative to L17E,NIH3T3 cells; 40 μM,twice
same,cells in which intracellular release of dextran was observed,"NIH3T3 cells; peptide 40 μM, dextran (10 kDa), DEME(−) medium 1 hour",about 35%
same,peptide concentration required to detect the signal of intracellularly released human immunoglobulin in 35% of the cells,"HeLa cells [1]; IgG 500 μg/mL, 1 hour",20 µM
same,intracellular release of IgG relative to L17E,"HeLa cells [1]; peptide 20 μM, IgG 500 μg/mL (FIG. 9)",2.5 times
same,cells in which intracellular release of human immunoglobulin was observed,"HeLa cells [1]; peptide 20 μM, IgG 500 μg/mL",about 37%
same,"IgG dose required for intracellular IgG release in 50% of the cells, relative","HeLa cells [1]; peptide 40 μM, HAad treatment compared with L17E",1/10
same,intracellular release of IgG relative to L17E,"HeLa cells [1]; peptide 40 μM, IgG 50 μg/mL (FIG. 8)",5 times
same,cells in which intracellular release of human immunoglobulin was observed,"HeLa cells [1]; peptide 40 μM, IgG 50 μg/mL",50%
same,intracellular release of IgG relative to L17E,"HeLa cells [1]; peptide 40 μM, IgG 500 μg/mL (FIG. 7)",twice
same,cells in which intracellular release of human immunoglobulin was observed,"HeLa cells [1]; peptide 40 μM, IgG 500 μg/mL",about 70%
same,proportion of GFP-expressing cells,"[2]; Cre-His6 10 μM, peptide 40 μM, 1 hour, then 24 hours in α-MEM(+)",41%
same,increase of genetic recombination as compared with no peptide administration,[2]; EGFP expression with no release peptide was 9%,32%
same,cells in which localization of NLS-EGFP in the nuclei was observed,HeLa cells [3],about 84%
same,viability at 24 h,[4],~100%
same,"toxicity, in words",cells,no significant toxicity
same,EC50,"HeLa cells [5]; Alexa 488-dextran (10 kDa) 200 μg/mL, 1 hour, read-out: peptide concentration required to detect the signal of intracellularly released Alexa 488-dextran in 50% of the cells",20 µM
same,EC50 relative to L17E,"HeLa cells [5]; dextran release, HAad vs L17E",½

# From patent US11179471B2, “Peptide for cytosolic delivery” (priority 2017, dated 2021)
